Test results as given in publication PMC3830869, “Total Chemical Synthesis of a Heterodimeric Interchain Bis-Lactam-Linked Peptide: Application to an Analogue of Human Insulin-Like Peptide 3” (International Journal of Peptides, 2013).
Numbered stars: 1 amine (or outer) side, 2 acyl side, 3 side chain; on linkers, the order of the positions; unused ones are H or OH. Bridge positions count the residues as written; N and C are the ends. Square brackets hold non-standard residues; d marks the D form. Ends that are not written are not given here. I, II: the chains in the order shown. βAsp = O=C(O)[C@H](CC(=O)[*:2])N[*:1]; Dap = NC[C@H](N)C(=O)O

How the values were obtained:
[1] = molecular target: T1, RXFP2 (Homo sapiens, UniProt Q8WXD0); assay: RXFP2 competition binding assay with europium-labelled INSL3; parameters: expressed in transfected cells; host or cells: HEK-293T; settings: competition with 0.3 nM europium-labelled INSL3, unlabelled peptide 0.01 nM–1 μM; HEK-293T cells stably transfected with RXFP2; mean ± SEM; n in parentheses in Table 1 (6 for human INSL3, 3 for the analogues); read-out: Receptor binding pKi (converted)
[2] = molecular target: T1, RXFP2; parameters: expressed in transfected cells; settings: data for entry 2 taken from the reference; n = 3; ref [32]; cited from earlier work
Text: Table 1 Receptor binding affinities (pKi) of INSL3 and analogues. Data for entry 2 taken from reference. | column: Receptor binding pKi (n=) || Moreover, to date, there have been no reports of a chemical synthesis of a bis-lactam cross-linked heterodimeric peptide. Consequently, in this study, we undertook an examination of the feasibility of a total step-wise synthesis of, first, a monolactam A24-B22 analogue and, subsequently, a bis-lactam A11-B10/A24-B22 analogue of INSL3. Our novel strategy involved the continuous assembly of both the A- and B-chains, plus the lactam bridges on the same solid support, that is, without using preformed peptide fragments. In order to simplify assembly, the C-terminus of the A-chain was truncated at p ... || Both the ΔA25/26 human INSL3 monolactam A24-B22 and bis-lactam A11-B10/A24-B22 analogues were tested in the RXFP2 competition binding assay (Table 1).

T1 sequence (Q8WXD0 whole entry): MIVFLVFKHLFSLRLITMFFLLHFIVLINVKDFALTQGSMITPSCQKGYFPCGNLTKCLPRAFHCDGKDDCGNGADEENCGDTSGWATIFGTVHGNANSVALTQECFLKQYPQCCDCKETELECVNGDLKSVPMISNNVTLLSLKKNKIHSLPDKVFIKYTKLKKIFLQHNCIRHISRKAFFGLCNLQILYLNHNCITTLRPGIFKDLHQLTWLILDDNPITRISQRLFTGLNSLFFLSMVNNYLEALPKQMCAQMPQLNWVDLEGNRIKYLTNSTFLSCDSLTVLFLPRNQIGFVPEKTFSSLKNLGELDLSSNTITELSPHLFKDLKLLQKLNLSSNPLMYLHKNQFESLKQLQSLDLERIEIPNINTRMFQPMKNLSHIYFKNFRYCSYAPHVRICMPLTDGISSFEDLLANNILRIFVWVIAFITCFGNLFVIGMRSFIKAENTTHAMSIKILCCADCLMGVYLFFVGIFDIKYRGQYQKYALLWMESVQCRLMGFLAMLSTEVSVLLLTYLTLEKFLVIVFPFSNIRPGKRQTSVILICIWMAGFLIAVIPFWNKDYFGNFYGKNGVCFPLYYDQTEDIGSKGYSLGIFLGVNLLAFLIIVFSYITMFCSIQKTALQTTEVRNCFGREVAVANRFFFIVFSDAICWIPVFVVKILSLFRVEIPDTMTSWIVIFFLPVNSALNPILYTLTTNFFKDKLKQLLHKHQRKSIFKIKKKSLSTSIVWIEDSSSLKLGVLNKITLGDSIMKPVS

| Substance | Ki [1] | Receptor binding pKi [2] |
| --- | --- | --- |
| I: PTPEMREKLCGHHFVRALVRVCGGPRWSTEA / II: AAATNPARYCCLSGCTQQDLLTLCPY (disulfide I:10-II:11, I:22-II:24, II:10-II:15) [Human INSL3] | 0.575 nM | – |
| I: PTPEMREKLCGHHFVRALVRV[Dap]GGPRWSTEA / II: AAATNPARYCCLSGCTQQDLLTL[βAsp] (disulfide I:10-II:11, II:10-II:15; amide I:22-II:C) [ΔA25/26 human INSL3 mono-lactam A24-B22] | 4.47 nM | – |
| I: PTPEMREKL[Dap]GHHFVRALVRV[Dap]GGPRWSTEA / II: AAATNPARYCDLSGCTQQDLLTL[βAsp] (amide I:10-II:11, I:22-II:C; disulfide II:10-II:15) | 12 nM | – |
| ΔA25/26 human INSL3: INSL3 analogue, C-terminus of the A-chain truncated at position 24, omitting Pro A25 and Tyr A26 (chain 1 AAATNPARYCCLSGCTQQDLLTLC; chain 2 PTPEMREKLCGHHFVRALVRVCGGPRWSTEA; Disulfides A10-A15 (intra-A), A11-B10 and A24-B22 (interchain); A-chain is A1-A24 (Pro A25 and Tyr A26 omitted); B-chain is 31 residues ending in Ala; Ch) | – | 8.59 ± 0.06 (3) |
